Assay results taken from article PMC6736568, “Discovery of Novel Anti-cryptosporidial Activities From Natural Products by in vitro High-Throughput Phenotypic Screening” (Frontiers in Microbiology, 2019).
Counter-ions that a name gives are not always drawn. Like-named read-outs stand apart in the source and are kept apart here.

Assays:
[1] = in vitro
[2] = system: HCT-8 host cells (Hs18S)
[3] = system: Cryptosporidium parvum; assay: qRT-PCR assay of the growth of C. parvum in vitro in HCT-8 host cells (primary and secondary screening, EC50); format: cell-based; conditions: Cryptosporidium parvum, HCT-8; for inhibition at 3.3 µM: secondary screening at 3.3 uM, read-out: % Inhibition (3.3 uM)
[4] = primary screening at 10 uM, treated vs control
[5] = primary screening at 10 uM, read-out: Inhibition (%)

Row | SMILES | cytotoxicity at 10 µM [1] [%] | Hs18S ΔCT [2, 4] | inhibition at 10 µM [3, 5] [%] | inhibition at 3.3 µM [3] [%] | cytotoxicity at 41 h, 10 µM ([1]; human) [%] | Hs18S ΔCT ([2]; human, 41 h, 10 μM) | cytotoxicity at 41 h, 10 µM [1] [%] | Hs18S ΔCT [2] | inhibition at 10 µM [3] [%]
1 | CC[C@@]1(O)C[C@H](O)c2c(cc3c(c2O)C(=O)c2c(O)ccc(O)c2C3=O)[C@H]1C(=O)OC [RUTILANTINONE] | -45.2 | -0.54 | 92 | -3 |  |  |  |  | 
2 | C=CCc1ccc2c(c1)OCO2 [SAFROLE] | -35.3 | -0.44 | 76.2 | 8 |  |  |  |  | 
3 | OCc1ccccc1O[C@@H]1O[C@H](CO)[C@@H](O)[C@H](O)[C@H]1O [SALICIN] |  |  | 37.1 |  | 32.9 | 0.58 |  |  | 
4 | OC[C@H]1O[C@@H](OCCc2ccc(O)cc2)[C@H](O)[C@@H](O)[C@@H]1O [SALIDROSIDE] |  |  | 14.8 |  | -16.1 | -0.22 |  |  | 
5 | COc1cc2c(cc1OC)[C@H](C)NCC2 [SALSOLIDINE] |  | 0.32 | 47.1 |  |  |  | 20 |  | 
6 | C[n+]1cc2c3c(ccc2c2ccc4cc5c(cc4c21)OCO5)OCO3 [SANGUINARINE SULFATE] | 4.9 | 0.07 | 18.6 |  |  |  |  |  | 
7 | CC1=C2[C@H]3OC(=O)[C@@H](C)[C@@H]3CC[C@@]2(C)C=CC1=O [SANTONIN] | 11.8 | 0.18 | 9.41 |  |  |  |  |  | 
8 | COc1ccc2c(c1)OC/C(=C\c1ccc(OC)c(O)c1)C2=O [SAPPANONE A DIMETHYL ETHER] |  |  | 11.1 |  | 11.8 | 0.18 |  |  | 
9 | COc1ccc2c(c1)OC/C(=C/c1ccc(OC)c(OC)c1)C2=O [SAPPANONE A TRIMETHYL ETHER] | 14.7 | 0.23 | 3.07 |  |  |  |  |  | 
10 | C=C[C@](C)(O)CC[C@@H]1[C@@]2(C)CCCC(C)(C)[C@@H]2CC[C@@]1(C)O [SCLAREOL] |  |  | 7.29 |  | -10.7 | -0.15 |  |  | 
11 | CN1[C@@H]2C[C@@H](OC(=O)[C@H](CO)c3ccccc3)C[C@H]1[C@@H]1O[C@@H]12 [SCOPOLAMINE HYDROBROMIDE] | -29.6 | -0.37 | 14 |  |  |  |  |  | 
12 | O=C1C=C2C=C[C@@H]3C[C@@]2(O1)[C@H]1CCCCN31 [SECURININE] | 3.6 | 0.05 | 9.24 |  |  |  |  |  | 
13 | O=C(O)c1cc(O)c2c(c1)[C@H]([C@H]1c3cc(C(=O)O)cc(O)c3C(=O)c3c(O[C@@H]4O[C@H](CO)[C@@H](O)[C@H](O)[C@H]4O)cccc31)c1cccc(O[C@@H]3O[C@H](CO)[C@@H](O)[C@H](O)[C@H]3O)c1C2=O [SENNOSIDE A] | -6.1 | -0.08 | -4.71 |  |  |  |  |  | 
14 | NCCc1c[nH]c2ccc(O)cc12 [SEROTONIN HYDROCHLORIDE] | -31.7 | -0.40 | 10.2 |  |  |  |  |  | 
15 | COc1cc(C2Oc3cc([C@H]4Oc5cc(O)cc(O)c5C(=O)[C@@H]4O)ccc3OC2CO)ccc1O (stereo partly shown) [SILIBININ] |  |  | 93.5 | -30 | -1.4 | -0.02 |  |  | 
16 | COc1cc(/C=C/C(=O)O)cc(OC)c1OC [SINAPIC ACID METHYL ETHER] | 36.6 | 0.66 | -20.8 |  |  |  |  |  | 
17 | COc1ccc(-c2cc(=O)c3c(OC)c(OC)c(OC)cc3o2)cc1OC [SINENSETIN] |  |  | 42.8 |  | 23.6 | 0.39 |  |  | 
18 | CO[C@H]1C[C@@H]2CC[C@@H](C)[C@@](O)(O2)C(=O)C(=O)N2CCCC[C@H]2C(=O)O[C@H]([C@H](C)C[C@@H]2CC[C@@H](O)[C@H](OC)C2)CC(=O)[C@H](C)/C=C(\C)[C@@H](O)[C@@H](OC)C(=O)[C@H](C)C[C@H](C)/C=C/C=C/C=C/1C [SIROLIMUS] |  |  | 76.6 | 35 | 47.9 | 0.94 |  |  | 
19 | CN[C@@H]1[C@@H](O)[C@@H](O[C@@H]2[C@@H](O)[C@H](O[C@H]3OC(CN)=CC[C@H]3N)[C@@H](N)C[C@H]2N)OC[C@]1(C)O [SISOMICIN SULFATE] |  |  | 41.1 |  | -7.8 | -0.11 |  |  | 
20 | CC[C@H](CC[C@@H](C)[C@H]1CC[C@H]2[C@@H]3CC=C4C[C@@H](OC(C)=O)CC[C@]4(C)[C@H]3CC[C@]12C)C(C)C [SITOSTERYL ACETATE] |  |  | -3.86 |  | -12.4 | -0.17 |  |  | 
21 | C[C@@H]1CC[C@@]2(NC1)O[C@H]1C[C@H]3[C@@H]4CC=C5C[C@@H](O)CC[C@]5(C)[C@H]4CC[C@]3(C)[C@H]1[C@@H]2C [SOLASODINE] | 4.6 | 0.07 | -28.3 |  |  |  |  |  | 
22 | OC[C@@H](O)[C@@H](O)[C@H](O)[C@@H](O)CO [SORBITOL] |  |  | -33.8 |  | -13.2 | -0.18 |  |  | 

Row | SMILES | cytotoxicity at 10 µM [1] [%] | Hs18S ΔCT [2, 4] | inhibition at 10 µM [3, 5] [%] | inhibition at 3.3 µM [3] [%] | cytotoxicity at 41 h, 10 µM ([1]; human) [%] | Hs18S ΔCT ([2]; human, 41 h, 10 μM) | cytotoxicity at 41 h, 10 µM [1] [%] | Hs18S ΔCT [2] | inhibition at 10 µM [3] [%]
23 | CC(=O)N[C@@H](CC(=O)N[C@@H](CCC(=O)O)C(=O)O)C(=O)O [SPAGLUMIC ACID] | 11.9 | 0.18 | 31.3 |  |  |  |  |  | 
24 | C1CCN2C[C@@H]3C[C@@H](CN4CCCC[C@@H]34)[C@H]2C1 [SPARTEINE SULFATE] | 3 | 0.04 | -14.6 |  |  |  |  |  | 
25 | NCCCCNCCCN [SPERMIDINE TRIHYDROCHLORIDE] |  |  | 23.9 |  | -54.4 | -0.63 |  |  | 
26 | NCCCNCCCCNCCCN [SPERMINE] |  |  | -7.42 |  | -35.1 | -0.43 |  |  | 
27 | COc1cc2ccc(=O)oc2c2ccoc12 [SPHONDIN] | 20.1 | 0.32 | -5.49 |  |  |  |  |  | 
28 | COc1cc(C)c2c(c1C=O)Oc1c(c(C)c(O)c3c1C(O)OC3=O)OC2=O (stereo not shown) [STICTIC ACID] |  |  | -0.45 |  | 5.5 | 0.08 |  |  | 
29 | CC[C@H](/C=C/[C@@H](C)[C@H]1CC[C@H]2[C@@H]3CC=C4C[C@@H](O)CC[C@]4(C)[C@H]3CC[C@]12C)C(C)C [STIGMASTEROL] | 48.6 | 0.96 | -18 |  |  |  |  |  | 
30 | [H]/N=C(/N)N[C@H]1[C@H](O)[C@@H](O)[C@H](O[C@@H]2O[C@@H](C)[C@](O)(C=O)[C@H]2O[C@@H]2O[C@@H](CO)[C@H](O)[C@@H](O)[C@@H]2NC)[C@@H](N/C(N)=N\[H])[C@@H]1O [STREPTOMYCIN SULFATE] |  |  | 15.4 |  | -7.1 | -0.10 |  |  | 
31 | O=C1C[C@@H]2OCC=C3CN4CC[C@]56c7ccccc7N1[C@H]5[C@H]2[C@H]3C[C@H]46 [STRYCHNINE] | -23.5 |  |  |  |  |  |  | -0.30 | 29
32 | COc1cc(C(=O)O)cc(OC)c1O [SYRINGIC ACID] | -20 | -0.26 | 3.63 |  |  |  |  |  | 
33 | C=CC[C@@H]1/C=C(\C)C[C@H](C)C[C@H](OC)[C@H]2O[C@@](O)(C(=O)C(=O)N3CCCC[C@H]3C(=O)O[C@H](/C(C)=C/[C@@H]3CC[C@@H](O)[C@H](OC)C3)[C@H](C)[C@@H](O)CC1=O)[C@H](C)C[C@@H]2OC [TACROLIMUS] |  |  | 75.6 | -14 | 10.4 | 0.16 |  |  | 
34 | CN(C)[C@@H]1C(O)=C(C(N)=O)C(=O)[C@@]2(O)C(O)=C3C(=O)c4c(O)cccc4[C@@](C)(O)[C@H]3C[C@@H]12 [TETRACYCLINE HYDROCHLORIDE] | -24.3 |  | -17.3 |  |  |  |  | -0.31 | 
35 | COc1ccc2cc1Oc1ccc(cc1)C[C@H]1c3cc(c(OC)cc3CCN1C)Oc1c(OC)c(OC)cc3c1[C@H](C2)N(C)CC3 [TETRANDRINE] |  |  | 80.4 | 1 | -2.5 | -0.04 |  |  | 
36 | O=C(O[C@@H]1Cc2c(O)cc(O)cc2O[C@@H]1c1cc(O)c(=O)c2c(O)c(O)cc([C@H]3Oc4cc(O)cc(O)c4C[C@H]3O)c2c1)c1cc(O)c(O)c(O)c1 [THEAFLAVIN MONOGALLATES] |  |  | 25.6 |  | -7.4 | -0.10 |  |  | 
37 | O=c1c(O)cc([C@H]2Oc3cc(O)cc(O)c3C[C@H]2O)cc2c([C@H]3Oc4cc(O)cc(O)c4C[C@H]3O)cc(O)c(O)c12 [THEAFLAVIN] |  |  | 10.2 |  | 7.6 | 0.11 |  |  | 
38 | Cn1cnc2c1c(=O)[nH]c(=O)n2C [THEOBROMINE] |  |  | -18.1 |  | 2.2 | 0.03 |  |  | 
39 | Cn1c(=O)c2[nH]cnc2n(C)c1=O [THEOPHYLLINE] | -22.6 | -0.29 | 20.5 |  |  |  |  |  | 
40 | CC1=CC(=O)C(C(C)C)=CC1=O [THYMOQUINONE] |  |  | 3.13 |  | -5.8 | -0.08 |  |  | 
41 | C[C@@H]1CC[C@@]2(OC1)O[C@H]1C[C@H]3[C@@H]4CC[C@H]5C[C@@H](O)CC[C@]5(C)[C@H]4CC[C@]3(C)[C@H]1[C@@H]2C [TIGOGENIN] |  | -0.40 | 15.4 |  |  |  | -31.8 |  | 
42 | NC[C@H]1O[C@H](O[C@H]2[C@H](O)[C@@H](O[C@H]3O[C@H](CO)[C@@H](O)[C@H](N)[C@H]3O)[C@H](N)C[C@@H]2N)[C@H](N)C[C@@H]1O [TOBRAMYCIN] |  |  | 4.08 |  | -40.8 | -0.49 |  |  | 
43 | C[C@H]1CC[C@]2(NC1)O[C@H]1C[C@H]3[C@@H]4CC[C@H]5C[C@@H](O[C@@H]6O[C@H](CO)[C@H](O[C@@H]7O[C@H](CO)[C@@H](O)[C@H](O[C@@H]8OC[C@@H](O)[C@H](O)[C@H]8O)[C@H]7O[C@@H]7O[C@H](CO)[C@@H](O)[C@H](O)[C@H]7O)[C@H](O)[C@H]6O)CC[C@]5(C)[C@H]4CC[C@]3(C)[C@H]1[C@@H]2C [TOMATINE] | 2.7 | 0.04 | 92.9 | 25 |  |  |  |  | 
